{
  "source": "PubChem BioAssay AID1919013",
  "about": "(Molecular Pharmacology Branch, DTP, NCI, 2023)",
  "tested_on": "LG0703-F498-PDC complex spheroid growth",
  "experiment": "Anticancer human tumor LG0703-F498-PDC patient-derived lung adenocarcinoma cell line growth inhibition [AhR]",
  "details": "for IC50: curve of first compound; for viability, T/C: stronger effect = lower value",
  "how_it_was_run": "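Agents were dosed in half-log steps down from roughly clinical Cmax, or from 10 microM where Cmax was unknown, alone and with AhR antagonists. Read-out: percent test/control growth of tumor spheroids containing HUVEC and MSC stromal cells.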",
  "data": [
    {"compound": "CC[C@@]1(O)C(=O)OCc2c1cc1n(c2=O)Cc2cc3c(CN(C)C)c(O)ccc3nc2-1", "note": "+ Cc1cncc(-c2nc(NCCc3c[nH]c4ccccc34)c3ncn(C(C)C)c3n2)c1;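 further: luminescence taken as a proxy for viable cell amount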;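 on viability, T/C: percent of DMSO vehicle control where 100% means growth equal to vehicle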", "values": [
      {"measurement": "IC50", "setting": "second compound 0.1 µM", "result": "> 100", "unit": "nM"},
      {"measurement": "IC50", "setting": "second compound 0.316 µM", "result": "> 100", "unit": "nM"},
      {"measurement": "IC50", "setting": "second compound 1 µM", "result": "> 100", "unit": "nM"},
      {"measurement": "IC50", "setting": "second compound 3.16 µM", "result": 29.8, "unit": "nM"},
      {"measurement": "IC50", "setting": "second compound 10 µM", "result": "< 0.316", "unit": "nM"},
      {"measurement": "viability, T/C", "setting": "second compound 0.1 µM, first compound 0.000316 µM", "result": 96.8, "unit": "%"},
      {"measurement": "viability, T/C", "setting": "second compound 0.1 µM, first compound 0.001 µM", "result": 99.7, "unit": "%"},
      {"measurement": "viability, T/C", "setting": "second compound 0.1 µM, first compound 0.00316 µM", "result": 100, "unit": "%"},
      {"measurement": "viability, T/C", "setting": "second compound 0.1 µM, first compound 0.01 µM", "result": 89.2, "unit": "%"},
      {"measurement": "viability, T/C", "setting": "second compound 0.1 µM, first compound 0.0316 µM", "result": 78.6, "unit": "%"},
      {"measurement": "viability, T/C", "setting": "second compound 0.1 µM, first compound 0.1 µM", "result": 63.7, "unit": "%"},
      {"measurement": "viability, T/C", "setting": "second compound 0.316 µM, first compound 0.000316 µM", "result": 93, "unit": "%"},
      {"measurement": "viability, T/C", "setting": "second compound 0.316 µM, first compound 0.001 µM", "result": 105, "unit": "%"},
      {"measurement": "viability, T/C", "setting": "second compound 0.316 µM, first compound 0.00316 µM", "result": 102, "unit": "%"},
      {"measurement": "viability, T/C", "setting": "second compound 0.316 µM, first compound 0.01 µM", "result": 87.5, "unit": "%"},
      {"measurement": "viability, T/C", "setting": "second compound 0.316 µM, first compound 0.0316 µM", "result": 63.9, "unit": "%"},
      {"measurement": "viability, T/C", "setting": "second compound 0.316 µM, first compound 0.1 µM", "result": 55.4, "unit": "%"},
      {"measurement": "viability, T/C", "setting": "second compound 1 µM, first compound 0.000316 µM", "result": 97.5, "unit": "%"},
      {"measurement": "viability, T/C", "setting": "second compound 1 µM, first compound 0.001 µM", "result": 101, "unit": "%"},
      {"measurement": "viability, T/C", "setting": "second compound 1 µM, first compound 0.00316 µM", "result": 101, "unit": "%"},
      {"measurement": "viability, T/C", "setting": "second compound 1 µM, first compound 0.01 µM", "result": 90.6, "unit": "%"},
      {"measurement": "viability, T/C", "setting": "second compound 1 µM, first compound 0.0316 µM", "result": 73, "unit": "%"},
      {"measurement": "viability, T/C", "setting": "second compound 1 µM, first compound 0.1 µM", "result": 50.2, "unit": "%"},
      {"measurement": "viability, T/C", "setting": "second compound 3.16 µM, first compound 0.000316 µM", "result": 56.9, "unit": "%"},
      {"measurement": "viability, T/C", "setting": "second compound 3.16 µM, first compound 0.001 µM", "result": 67.9, "unit": "%"},
      {"measurement": "viability, T/C", "setting": "second compound 3.16 µM, first compound 0.00316 µM", "result": 56.6, "unit": "%"},
      {"measurement": "viability, T/C", "setting": "second compound 3.16 µM, first compound 0.01 µM", "result": 57.6, "unit": "%"},
      {"measurement": "viability, T/C", "setting": "second compound 3.16 µM, first compound 0.0316 µM", "result": 48, "unit": "%"},
      {"measurement": "viability, T/C", "setting": "second compound 3.16 µM, first compound 0.1 µM", "result": 38.3, "unit": "%"},
      {"measurement": "viability, T/C", "setting": "second compound 10 µM, first compound 0.000316 µM", "result": 1.34, "unit": "%"},
      {"measurement": "viability, T/C", "setting": "second compound 10 µM, first compound 0.001 µM", "result": 2.04, "unit": "%"},
      {"measurement": "viability, T/C", "setting": "second compound 10 µM, first compound 0.00316 µM", "result": 1.13, "unit": "%"},
      {"measurement": "viability, T/C", "setting": "second compound 10 µM, first compound 0.01 µM", "result": 1.73, "unit": "%"},
      {"measurement": "viability, T/C", "setting": "second compound 10 µM, first compound 0.0316 µM", "result": 1.21, "unit": "%"},
      {"measurement": "viability, T/C", "setting": "second compound 10 µM, first compound 0.1 µM", "result": 2.28, "unit": "%"}
    ]},
    {"compound": "CCc1c2c(nc3ccc(O)cc13)-c1cc3c(c(=O)n1C2)COC(=O)[C@]3(O)CC", "note": "+ Cc1cncc(-c2nc(NCCc3c[nH]c4ccccc34)c3ncn(C(C)C)c3n2)c1", "values": [
      {"measurement": "IC50", "setting": "second compound 0.1 µM", "result": 15.3, "unit": "nM"},
      {"measurement": "IC50", "setting": "second compound 0.316 µM", "result": 11.1, "unit": "nM"},
      {"measurement": "IC50", "setting": "second compound 1 µM", "result": 11.9, "unit": "nM"},
      {"measurement": "IC50", "setting": "second compound 3.16 µM", "result": "< 0.949", "unit": "nM"},
      {"measurement": "IC50", "setting": "second compound 10 µM", "result": "< 0.949", "unit": "nM"},
      {"measurement": "viability, T/C", "setting": "second compound 0.1 µM, first compound 0.000949 µM", "result": 102, "unit": "%"},
      {"measurement": "viability, T/C", "setting": "second compound 0.1 µM, first compound 0.003 µM", "result": 82.4, "unit": "%"},
      {"measurement": "viability, T/C", "setting": "second compound 0.1 µM, first compound 0.00949 µM", "result": 55.5, "unit": "%"},
      {"measurement": "viability, T/C", "setting": "second compound 0.1 µM, first compound 0.03 µM", "result": 39.3, "unit": "%"},
      {"measurement": "viability, T/C", "setting": "second compound 0.1 µM, first compound 0.0949 µM", "result": 29.1, "unit": "%"},
      {"measurement": "viability, T/C", "setting": "second compound 0.1 µM, first compound 0.3 µM", "result": 19.2, "unit": "%"},
      {"measurement": "viability, T/C", "setting": "second compound 0.316 µM, first compound 0.000949 µM", "result": 92.1, "unit": "%"},
      {"measurement": "viability, T/C", "setting": "second compound 0.316 µM, first compound 0.003 µM", "result": 72.4, "unit": "%"},
      {"measurement": "viability, T/C", "setting": "second compound 0.316 µM, first compound 0.00949 µM", "result": 51.2, "unit": "%"},
      {"measurement": "viability, T/C", "setting": "second compound 0.316 µM, first compound 0.03 µM", "result": 37.1, "unit": "%"},
      {"measurement": "viability, T/C", "setting": "second compound 0.316 µM, first compound 0.0949 µM", "result": 25.2, "unit": "%"},
      {"measurement": "viability, T/C", "setting": "second compound 0.316 µM, first compound 0.3 µM", "result": 18.3, "unit": "%"},
      {"measurement": "viability, T/C", "setting": "second compound 1 µM, first compound 0.000949 µM", "result": 80.5, "unit": "%"},
      {"measurement": "viability, T/C", "setting": "second compound 1 µM, first compound 0.003 µM", "result": 76.5, "unit": "%"},
      {"measurement": "viability, T/C", "setting": "second compound 1 µM, first compound 0.00949 µM", "result": 49.7, "unit": "%"},
      {"measurement": "viability, T/C", "setting": "second compound 1 µM, first compound 0.03 µM", "result": 35.7, "unit": "%"},
      {"measurement": "viability, T/C", "setting": "second compound 1 µM, first compound 0.0949 µM", "result": 22.1, "unit": "%"},
      {"measurement": "viability, T/C", "setting": "second compound 1 µM, first compound 0.3 µM", "result": 13.6, "unit": "%"},
      {"measurement": "viability, T/C", "setting": "second compound 3.16 µM, first compound 0.000949 µM", "result": 44.5, "unit": "%"},
      {"measurement": "viability, T/C", "setting": "second compound 3.16 µM, first compound 0.003 µM", "result": 37.7, "unit": "%"},
      {"measurement": "viability, T/C", "setting": "second compound 3.16 µM, first compound 0.00949 µM", "result": 33, "unit": "%"},
      {"measurement": "viability, T/C", "setting": "second compound 3.16 µM, first compound 0.03 µM", "result": 29.1, "unit": "%"},
      {"measurement": "viability, T/C", "setting": "second compound 3.16 µM, first compound 0.0949 µM", "result": 16.3, "unit": "%"},
      {"measurement": "viability, T/C", "setting": "second compound 3.16 µM, first compound 0.3 µM", "result": 11.9, "unit": "%"},
      {"measurement": "viability, T/C", "setting": "second compound 10 µM, first compound 0.000949 µM", "result": 1.16, "unit": "%"},
      {"measurement": "viability, T/C", "setting": "second compound 10 µM, first compound 0.003 µM", "result": 1.16, "unit": "%"},
      {"measurement": "viability, T/C", "setting": "second compound 10 µM, first compound 0.00949 µM", "result": 2.25, "unit": "%"},
      {"measurement": "viability, T/C", "setting": "second compound 10 µM, first compound 0.03 µM", "result": 1.82, "unit": "%"},
      {"measurement": "viability, T/C", "setting": "second compound 10 µM, first compound 0.0949 µM", "result": 1.25, "unit": "%"},
      {"measurement": "viability, T/C", "setting": "second compound 10 µM, first compound 0.3 µM", "result": 1.61, "unit": "%"}
    ]}
  ]
}
